Experimental data published in patent US5106835A, “Renin inhibitors” (American Cyanamid Company, priority 1990, dated 1992).

Target: T1, human kidney renin (Homo sapiens, UniProt P00797)
T1 construct: Human renin was prepared from human kidney; from tissue; host or cells: human kidney
T1 sequence (P00797 67-406): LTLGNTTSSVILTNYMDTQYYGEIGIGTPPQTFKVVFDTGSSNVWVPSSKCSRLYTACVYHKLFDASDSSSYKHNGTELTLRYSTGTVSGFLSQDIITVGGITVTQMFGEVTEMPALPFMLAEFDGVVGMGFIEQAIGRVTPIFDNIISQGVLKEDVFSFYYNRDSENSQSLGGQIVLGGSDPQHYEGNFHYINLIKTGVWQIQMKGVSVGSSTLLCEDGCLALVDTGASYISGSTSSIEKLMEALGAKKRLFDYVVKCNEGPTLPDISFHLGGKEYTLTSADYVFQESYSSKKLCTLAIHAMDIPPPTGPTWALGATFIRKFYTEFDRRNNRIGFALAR
Experiment: Radioimmunoassay screen for renin inhibitors (angiotensin I generation, then quantitation by radioimmunoassay)
Format: biochemical
Conditions: for IC50: human kidney renin, purified human plasma angiotensinogen, maleate buffer pH 6.0, 1 hour at 37° C., read-out: IC50 Molar Concentration
Description: Radioimmunoassay Screen For Renin Inhibitors
The in vitro method for the screening of anti-renin compounds involves, first, angiotensin I generation, and second, the quantitation of the angiotensin I produced by radioimmunoassay.
The incubation medium consisted of 20 μl of purified human plasma angiotensinogen (1); 40 μl of human kidney renin (2); 5 μl of phenylmethylsulfonyl fluoride; 10 μl of disodium EDTA (10 mM); 10 μl of antirenin compound (5×10^-3, 5×10^-4, 5×10^-5) in dimethylformamide, or ethanol and a suitable amount of maleate buffer (77mM, pH 6.0) to make a final volume of 500 μl. The reaction mixture was incubated for 1 hour at 37° C. and the enzymatic reaction was stopped by placing the tube in ice-cold water. The angiotension I generated during the incubation was measured by a radioimmunoassay plasma renin activity kit (Clinical Assays, Inc.).
Radioimmunoassay Procedure
The incubation medium consisted of either 100 μl aliquots of the above reaction mixture or a standard amount of angiotensin I; 1000 μl of phosphate buffer (100 mM, pH7.6) and 100 μl of (^125 I)angiotensin in a gamma-coat, tube. After three hours of incubation at room temperature, the tubes were decanted, and the radioactivity of each tube was determined in a gamma counter. Duplicate determinations were performed for each incubation. The results were expressed in ng of angiotensin I generated per ml of generation medium per hour of incubation (ng/AI/ml/hr), and the % of inhibition was obtained by the following: % inhibition= [formula]
The results of this test on representative compounds of this invention appear in Table I, expressed as an IC50.
(1) The human plasma angiotensinogen derived from the blood of a person receiving oral contraceptive pills was purified by chromatography on a pepstatin-aminohexyl-agarose column.
(2) Human renin was prepared from human kidney.

**Q.** With `CC(C)C[C@@H](C=O)NC(=O)C(NC(=O)[C@H](Cc1ccccc1)NC(=O)OCc1ccccc1)OC(C)C` (stereo partly drawn) [N-[(Phenylmethoxy)carbonyl]-L-phenylalanyl-N-(S)-1-formyl-3-methylbutyl]-L-2-(1-methylethoxy)glycinamide] as the molecule, how does the IC50 read?
**A.** 10000 nM

**Q.** Which results are given for `CC(C)COC(NC(=O)[C@H](Cc1ccccc1)NC(=O)OCc1ccccc1)C(=O)N[C@H](C=O)Cc1ccccc1` (stereo partly drawn) [N-[(Phenylmethoxy)carbonyl]-L-phenylalanyl-N-[(S)-1-formyl-2-phenylethyl]-L-2-(2-methylpropoxy)glycinamide]?
**A.** % Renin Inhibition (Molar Concentration 1 × 10^-4): 66%; % Renin Inhibition (Molar Concentration 1 × 10^-5): 59%

**Q.** For `CC(C)CO[C@H](NC(=O)[C@H](Cc1ccccc1)NC(=O)OCc1ccccc1)C(=O)N[C@H](C=O)CC(C)C` [N-[(Phenylmethoxy)carbonyl]-L-phenylalanyl-N-[(S)-1-formyl-3-methylbutyl]-L-2-(2-methylpropoxy)glycinamide], which “% Renin Inhibition” value (Molar Concentration 1 × 10^-4) is on record?
**A.** 70%

**Q.** And the “% Renin Inhibition” value (Molar Concentration 1 × 10^-5)?
**A.** 50%

**Q.** For `CC(C)COC(NC(=O)[C@H](Cc1ccccc1)NC(=O)OCc1ccccc1)C(=O)N[C@@H](CC1CCCCC1)[C@@H](O)c1nccs1` (stereo partly drawn) [N-[(Phenylmethoxy)carbonyl]-phenylalanyl-L-2-(2-methylpropox] [N-[(Phenylmethoxy)carbonyl]-L-phenylalanyl-L-2-(2-methylpropoxy)glycyl]-(1R,2S)-2-amino-3-cyclohexyl-1-(2-thiazolyl)propan-1-ol], which IC50 is on record?
**A.** 87 nM

**Q.** With `CC(C)CO[C@@H](NC(=O)[C@H](Cc1ccccc1)NC(=O)OCc1ccccc1)C(=O)N[C@@H](Cc1ccccc1)[C@@H](O)c1nccs1` [N-[N-(Benzyloxycarbonyl)-L-phenylalanyl-D-2-(2-methylpropoxy)glycyl]-(S)2-amino-3-phenyl-(R)1-(2-thiazoly)propan-1-ol] as the molecule, how does the “% Renin Inhibition” value (Molar Concentration 1 × 10^-4) read?
**A.** 74.6%

**Q.** What about the “% Renin Inhibition” value (Molar Concentration 1 × 10^-5) of the same molecule?
**A.** 69.2%

**Q.** What about the “% Renin Inhibition” value (Molar Concentration 1 × 10^-6) of the same molecule?
**A.** 41.0%

**Q.** How did the IC50 turn out when `CC(C)C[C@H](NC(=O)C(NC(=O)[C@H](Cc1ccccc1)NC(=O)OCc1ccccc1)OC(C)C)[C@@H](O)c1nccs1` (stereo partly drawn) [N-[N-(Benzyloxycarbonyl)-L-phenylalanyl-L-2-(1-methylethoxy)glycyl]-(S)2-amino-4-methyl-(R)1-(2-thiazolyl)pentan-1-ol] was run?
**A.** 280 nM

**Q.** `CC(C)COC(NC(=O)[C@H](Cc1ccccc1)NC(=O)OCc1ccccc1)C(=O)N[C@@H](CC(C)C)[C@@H](O)c1ncnn1C` (stereo partly drawn) [N-[N-(Benzyloxycarbonyl)-L-phenylalanyl-L-2-(2-methylpropoxy)glycl]-(S)2-amino-4-methyl(R)1-(1-methyl-1H-1,2,4-triazol-5-yl)pentan-1-ol] was tested. Which “% Renin Inhibition” value (Molar Concentration 1 × 10^-4) did it give?
**A.** 32%

**Q.** Which results are given for `CC(C)CO[C@H](NC(=O)[C@H](Cc1ccccc1)NC(=O)OCc1ccccc1)C(=O)N[C@@H](Cc1ccccc1)[C@@H](O)c1nccs1` [N-[N-(Benzyloxycarbonyl)-L-phenylalanyl-L-2-(2-methylpropxy)glycyl]-(S)2-amino-3-phenyl-(R)1-(2-thiazolyl)propan-1-ol]?
**A.** % Renin Inhibition (Molar Concentration 1 × 10^-4): 85.0%; % Renin Inhibition (Molar Concentration 1 × 10^-5): 84.6%; % Renin Inhibition (Molar Concentration 1 × 10^-6): 76.2%; IC50: 470 nM

**Q.** `CC(C)C[C@H](NC(=O)C(NC(=O)[C@H](Cc1ccccc1)NC(=O)OCc1ccccc1)OC1CCCCC1)[C@@H](O)c1nccs1` (stereo partly drawn) [N-[N-(Benzyloxycarbonyl)-L-phenylalanyl-L-2-(cyclohexyloxy)glycyl]-(S)2-amino-4-methyl-(R)1-(2-thiazolyl)pentan-1-ol] was tested. Which IC50 did it give?
**A.** 8500 nM

**Q.** With `CC(C)COC(NC(=O)OCc1ccccc1)C(=O)N[C@@H](CC1CCCCC1)[C@@H](O)c1ccccn1` (stereo partly drawn) [N-[N-(Phenylmethoxy)carbonyl-L-2-(2-methylpropoxy)glycyl]-(S)2-amino-3-cyclohexyl(R)1-(2-pyridinyl)propan-1-ol] as the molecule, how does the IC50 read?
**A.** 160 nM

**Q.** How did the IC50 turn out when `CC(C)OC(NC(=O)[C@H](Cc1ccccc1)NC(=O)OCc1ccccc1)C(=O)N[C@@H](CC1CCCCC1)[C@@H](O)c1nccs1` (stereo partly drawn) [N-[N-(Phenylmethoxy)carbonyl-L-phenylalanyl-D-2-(1-methyleth] [N-[N-[(phenylmethoxy)carbonyl-L-phenylalanyl-D-2-(1-methylethoxy)glycyl](S)2-amino-3-cyclohexyl-(R)1-(2-thiazolyl)propan-1-ol] was run?
**A.** 8800 nM

**Q.** How did the IC50 turn out when `CC(C)CO[C@@H](NC(=O)[C@H](Cc1ccccc1)NC(=O)OCc1ccccc1)C(=O)N[C@@H](CC1CCCCC1)[C@@H](O)c1ccccn1` [N-[N-(Phenylmethoxy)carbonyl-L-phenylalanyl-D-2-(2-methylpropoxy)glycyl]-(S)2-amino-3-cyclohexyl(R)1-(2-pyridinyl)propan-1-ol] was run?
**A.** 29000 nM

**Q.** How did the IC50 turn out when `CC(C)OC(NC(=O)[C@H](Cc1ccccc1)NC(=O)OCc1ccccc1)C(=O)N[C@@H](CC1CCCCC1)[C@@H](O)c1nccs1` (stereo partly drawn) [N-[N-(Phenylmethoxy)carbonyl-L-phenylalanyl-L-2-(1-methyleth] [N-[N-[(Phenylmethoxy)carbonyl-L-phenylalanyl-L-2-(1-methylethoxy)glycyl]-(S)2-amino-b 3-cyclohexyl-(R)1-(2-thiazolyl)propan-1-ol] was run?
**A.** 1 nM

**Q.** `CC(C)SC(NC(=O)[C@H](Cc1ccccc1)NC(=O)OCc1ccccc1)C(=O)N[C@@H](CC1CCCCC1)[C@@H](O)c1ccccn1` (stereo partly drawn) [N-[N-(Phenylmethoxy)carbonyl-L-phenylalanyl-L-2-(isopropylth] [N-[N-[(Phenylmethoxy)carbonyl]-L-phenylalanyl-L-2-(isopropylthio)glycyl]-(S)2-amino-3-cyclohexyl-(R)1-(2-pyridinyl)propan-1-ol] was tested. Which IC50 did it give?
**A.** 46 nM

**Q.** How did the IC50 turn out when `CC(C)SC(NC(=O)[C@H](Cc1ccccc1)NC(=O)OCc1ccccc1)C(=O)N[C@@H](CC1CCCCC1)[C@@H](O)c1ccccn1` (stereo partly drawn) [N-[N-(phenylmethoxy)carbonyl-L-phenylalanyl-D-2-(isopropylth] [N-[N[(phenylmethoxy)carbonyl]-L-phenylalanyl-D-2-(isopropylthio)glycyl]-(S)2-amino-3-cyclohexyl-(R)1-(2-pyridinyl)-propan-1-ol] was run?
**A.** 16000 nM

**Q.** Which IC50 does the source give for `CC(C)C[C@H](NC(=O)[C@H](Cc1ccccc1)NC(=O)OC(C)(C)C)C(=O)N[C@@H](CC(C)C)[C@@H](O)c1cccs1` [N-[N-(tert-Butoxycarbonyl)-L-phenylalanyl-L-leucyl]-(S)2-amino-4-methyl-(R)1-(2-thienyl)-pentan-1-ol] here?
**A.** 4500 nM

**Q.** How did the IC50 turn out when `CC(C)OC(NC(=O)[C@H](Cc1ccccc1)NC(=O)OCc1ccccc1)C(=O)N[C@@H](CC1CCCCC1)[C@@H](O)c1ccccn1` (stereo partly drawn) [N-[N-[ (Phenylmethoxy)carbonyl]-L-phenylalanyl-L-2-(1-methylethoxy)glycyl]-(S)2-amino-3-cyclohexyl-(R)1-(2-pyridinyl)propan-1-ol] was run?
**A.** 24 nM

**Q.** Which IC50 does the source give for `CC(C)C[C@H](NC(=O)C(NC(=O)[C@H](Cc1ccccc1)NC(=O)OCc1ccccc1)SC(C)C)[C@@H](O)c1nccs1` (stereo partly drawn) [N-[N-[(Phenylmethoxy)carbonyl-L-phenylalanyl-L-2-(isopropylthio)glycyl]-(S)2-amino-4-methyl-(R)1-(2-thiazaolyl)pentan-1-ol] here?
**A.** 14000 nM

**Q.** `CC(C)O[C@@H](NC(=O)[C@H](Cc1ccccc1)NC(=O)OCc1ccccc1)C(=O)N[C@@H](CC1CCCCC1)[C@@H](O)c1ccccn1` [N-[N-[(Phenylmethoxy)carbonyl]-L-phenylalanyl-D-2-(1-methylethoxy)glycyl]-(S)2-amino-3-cyclohexyl-(R)1-(2-pyridinyl)propan-1-ol] was tested. Which IC50 did it give?
**A.** 1000 nM

**Q.** How did the “% Renin Inhibition” value (Molar Concentration 1 × 10^-4) turn out when `CC(C)C[C@H](NC(=O)C(NC(=O)[C@H](Cc1ccccc1)NC(=O)OCc1ccccc1)SC(C)C)[C@@H](O)c1nccs1` (stereo partly drawn) [N-[N-[(phenylmethoxy)carbonyl]-L-phenylalanyl-D-2-(isopropylthio)glycyl]-(S)2-amino-4-methyl-(R)1-(2-thiazolyl)pentan-1-ol] was run?
**A.** 25%

**Q.** With `CC(C)C[C@H](NC(=O)[C@H](Cc1ccccc1)NC(=O)OC(C)(C)C)C(=O)N[C@@H](CC1CCCCC1)[C@@H](O)c1ccco1` [N-[N-tert-Butoxycarbonyl)-L-phenylalanyl-L-leucyl]-(S)2-amino-3-cyclohexyl-(R)1-(2-furanyl)propan-1-ol] as the molecule, how does the IC50 read?
**A.** 24 nM

**Q.** How did the IC50 turn out when `CC(C)COC(NC(=O)[C@H](Cc1ccccc1)NC(=O)OCc1ccccc1)C(=O)N[C@@H](CC1CCCCC1)[C@@H](O)c1nccs1` (stereo partly drawn) [N-[Phenylmethoxy)carbonyl]-L-phenylalanyl-D-2-(2-methylpropo] [N-[(Phenylmethoxy)carbonyl]-L-phenylalanyl-D 2-(2-methylpropoxy)glycyl-(1R,2S)-2-amino-3-cyclohexyl-1-(2-thiazolyl)propan-1-ol] was run?
**A.** 11000 nM
